Legend:
Test in all cases: radiometric filter-binding kinase assay
MAPK13 (human) = MAPK13 (human) (UniProt O15264)
CHEK1 (human) = CHEK1 (human) (UniProt O14757)
PRKCZ (human) = PRKCZ (human) (UniProt Q05513)
AURKA (human) = AURKA (human) (UniProt O14965)
GSK3B (human) = GSK3B (human) (UniProt P49841)
MAP2K2 (human) = MAP2K2 (human) (UniProt P36507)
PKN2 (human) = PKN2 (human) (UniProt Q16513)
MYLK (human) = MYLK (human) (UniProt Q15746)
MELK (human) = MELK (human) (UniProt Q14680)
TAOK1 (human) = TAOK1 (human) (UniProt Q7L7X3)
MAP3K9 (human) = MAP3K9 (human) (UniProt P80192)
Sequence of MAP3K9 (human) (P80192 whole entry, looked up): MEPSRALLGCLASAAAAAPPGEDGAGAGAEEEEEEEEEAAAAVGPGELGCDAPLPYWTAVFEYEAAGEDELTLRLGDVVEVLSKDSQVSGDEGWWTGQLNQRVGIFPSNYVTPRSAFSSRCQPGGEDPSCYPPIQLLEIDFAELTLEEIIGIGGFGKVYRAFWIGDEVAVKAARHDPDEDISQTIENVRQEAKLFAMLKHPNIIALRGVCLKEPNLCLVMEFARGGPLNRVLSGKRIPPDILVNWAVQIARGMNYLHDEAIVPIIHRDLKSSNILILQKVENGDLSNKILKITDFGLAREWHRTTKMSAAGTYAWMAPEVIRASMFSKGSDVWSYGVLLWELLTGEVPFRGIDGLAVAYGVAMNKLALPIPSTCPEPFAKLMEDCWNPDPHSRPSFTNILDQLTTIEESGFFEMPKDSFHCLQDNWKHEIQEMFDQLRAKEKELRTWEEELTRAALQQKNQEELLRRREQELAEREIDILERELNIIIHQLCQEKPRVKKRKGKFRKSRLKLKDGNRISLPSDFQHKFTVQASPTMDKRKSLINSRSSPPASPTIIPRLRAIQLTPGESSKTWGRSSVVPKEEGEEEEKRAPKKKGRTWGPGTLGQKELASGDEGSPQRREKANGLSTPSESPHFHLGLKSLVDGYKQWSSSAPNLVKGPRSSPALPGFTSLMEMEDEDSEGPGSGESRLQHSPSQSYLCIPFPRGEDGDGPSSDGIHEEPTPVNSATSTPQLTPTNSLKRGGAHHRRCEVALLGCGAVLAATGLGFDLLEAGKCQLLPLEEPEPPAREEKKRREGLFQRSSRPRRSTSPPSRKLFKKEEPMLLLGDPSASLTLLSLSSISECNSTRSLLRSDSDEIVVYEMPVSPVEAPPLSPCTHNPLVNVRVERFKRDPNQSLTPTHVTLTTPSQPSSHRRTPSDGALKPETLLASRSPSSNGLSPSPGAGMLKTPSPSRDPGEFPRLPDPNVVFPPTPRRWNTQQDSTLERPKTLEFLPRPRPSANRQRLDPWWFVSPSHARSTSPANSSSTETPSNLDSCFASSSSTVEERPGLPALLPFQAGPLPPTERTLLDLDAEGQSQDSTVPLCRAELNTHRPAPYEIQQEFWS

SRC (human) = SRC (human) (UniProt P12931)
Sequence of SRC (human) (P12931 whole entry, looked up): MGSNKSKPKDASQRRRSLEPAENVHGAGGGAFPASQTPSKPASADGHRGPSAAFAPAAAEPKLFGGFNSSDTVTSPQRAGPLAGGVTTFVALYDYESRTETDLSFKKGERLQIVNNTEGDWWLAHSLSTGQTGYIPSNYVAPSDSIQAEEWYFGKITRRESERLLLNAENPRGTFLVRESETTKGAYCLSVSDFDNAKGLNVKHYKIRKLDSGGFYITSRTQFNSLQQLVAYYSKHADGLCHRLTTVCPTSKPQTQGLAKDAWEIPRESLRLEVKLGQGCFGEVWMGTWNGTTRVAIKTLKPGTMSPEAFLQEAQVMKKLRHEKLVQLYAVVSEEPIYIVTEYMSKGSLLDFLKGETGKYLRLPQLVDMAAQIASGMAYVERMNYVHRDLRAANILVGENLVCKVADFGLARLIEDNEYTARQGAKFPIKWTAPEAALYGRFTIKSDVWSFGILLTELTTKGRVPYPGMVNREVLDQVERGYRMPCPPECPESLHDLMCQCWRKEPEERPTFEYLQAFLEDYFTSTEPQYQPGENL

EEF2K (human) = EEF2K (human) (UniProt O00418)
EPHB1 (human) = EPHB1 (human) (UniProt P54762)
MAP3K5 (human) = MAP3K5 (human) (UniProt Q99683)
MAPK1 (human) = MAPK1 (human) (UniProt P28482)
AURKB (human) = AURKB (human) (UniProt Q96GD4)
Sequence of AURKB (human) (Q96GD4 whole entry, looked up): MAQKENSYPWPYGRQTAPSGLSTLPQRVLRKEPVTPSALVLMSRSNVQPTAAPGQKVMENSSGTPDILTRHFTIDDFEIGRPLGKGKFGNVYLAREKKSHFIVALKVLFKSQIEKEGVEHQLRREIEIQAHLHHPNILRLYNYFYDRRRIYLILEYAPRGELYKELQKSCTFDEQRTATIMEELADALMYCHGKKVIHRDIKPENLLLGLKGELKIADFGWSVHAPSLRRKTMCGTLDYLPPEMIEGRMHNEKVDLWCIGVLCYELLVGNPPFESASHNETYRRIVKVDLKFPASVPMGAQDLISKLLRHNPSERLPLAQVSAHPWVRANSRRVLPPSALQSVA

IGF1R (human) = IGF1R (human) (UniProt P08069)
Sequence of IGF1R (human) (P08069 whole entry, looked up): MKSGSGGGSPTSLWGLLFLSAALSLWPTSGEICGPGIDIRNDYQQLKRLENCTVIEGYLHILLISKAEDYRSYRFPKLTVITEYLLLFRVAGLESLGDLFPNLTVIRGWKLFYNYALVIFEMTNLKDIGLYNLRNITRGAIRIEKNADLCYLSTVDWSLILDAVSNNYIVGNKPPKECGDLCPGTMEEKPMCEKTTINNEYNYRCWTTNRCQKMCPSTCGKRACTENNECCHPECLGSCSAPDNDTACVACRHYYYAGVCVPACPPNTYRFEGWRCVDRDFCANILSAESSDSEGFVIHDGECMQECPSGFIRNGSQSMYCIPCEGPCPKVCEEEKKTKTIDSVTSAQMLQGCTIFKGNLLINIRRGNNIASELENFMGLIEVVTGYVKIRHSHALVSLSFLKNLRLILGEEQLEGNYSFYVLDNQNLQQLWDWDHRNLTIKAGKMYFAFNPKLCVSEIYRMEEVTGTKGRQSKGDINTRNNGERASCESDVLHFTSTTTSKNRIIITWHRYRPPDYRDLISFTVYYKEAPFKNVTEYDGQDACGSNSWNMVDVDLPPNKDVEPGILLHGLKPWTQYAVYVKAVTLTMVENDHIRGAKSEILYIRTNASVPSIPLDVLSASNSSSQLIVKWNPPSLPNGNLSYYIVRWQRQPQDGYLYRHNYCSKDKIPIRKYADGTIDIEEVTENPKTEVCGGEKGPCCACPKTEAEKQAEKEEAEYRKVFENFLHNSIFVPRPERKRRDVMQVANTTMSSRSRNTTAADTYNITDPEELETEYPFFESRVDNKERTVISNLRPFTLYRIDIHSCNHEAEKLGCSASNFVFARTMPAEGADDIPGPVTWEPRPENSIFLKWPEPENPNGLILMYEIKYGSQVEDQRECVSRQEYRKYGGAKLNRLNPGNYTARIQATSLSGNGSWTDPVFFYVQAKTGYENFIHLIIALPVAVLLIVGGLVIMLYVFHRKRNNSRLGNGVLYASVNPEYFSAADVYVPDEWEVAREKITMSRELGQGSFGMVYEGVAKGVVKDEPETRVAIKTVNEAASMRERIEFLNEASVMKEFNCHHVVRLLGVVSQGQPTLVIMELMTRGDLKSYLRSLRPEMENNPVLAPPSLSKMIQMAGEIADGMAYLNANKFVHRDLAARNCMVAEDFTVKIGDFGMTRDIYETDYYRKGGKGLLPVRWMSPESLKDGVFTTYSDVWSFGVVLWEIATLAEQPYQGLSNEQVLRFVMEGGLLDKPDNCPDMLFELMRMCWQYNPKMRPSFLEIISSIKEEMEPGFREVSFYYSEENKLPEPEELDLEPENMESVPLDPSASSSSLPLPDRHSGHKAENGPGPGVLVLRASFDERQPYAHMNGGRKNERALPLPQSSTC

FLT1 (human) = FLT1 (human) (UniProt P17948)
HIPK1 (human) = HIPK1 (human) (UniProt Q86Z02)
GCK (human) = GCK (human) (UniProt Q12851)
PAK6 (human) = PAK6 (human) (UniProt Q9NQU5)
[1] = tested on: PAK2 (human), Q13177 [T402E]
CSNK1D (human) = CSNK1D (human) (UniProt P48730)
HIPK2 (human) = HIPK2 (human) (UniProt Q9H2X6)
MAPK10 (human) = MAPK10 (human) (UniProt P53779)
TTK (human) = TTK (human) (UniProt P33981)
[2] = tested on: AKT2 (human), P31751 [S474D]
Sequence of AKT2 (human), P31751 [S474D] (P31751 whole entry S474D, looked up): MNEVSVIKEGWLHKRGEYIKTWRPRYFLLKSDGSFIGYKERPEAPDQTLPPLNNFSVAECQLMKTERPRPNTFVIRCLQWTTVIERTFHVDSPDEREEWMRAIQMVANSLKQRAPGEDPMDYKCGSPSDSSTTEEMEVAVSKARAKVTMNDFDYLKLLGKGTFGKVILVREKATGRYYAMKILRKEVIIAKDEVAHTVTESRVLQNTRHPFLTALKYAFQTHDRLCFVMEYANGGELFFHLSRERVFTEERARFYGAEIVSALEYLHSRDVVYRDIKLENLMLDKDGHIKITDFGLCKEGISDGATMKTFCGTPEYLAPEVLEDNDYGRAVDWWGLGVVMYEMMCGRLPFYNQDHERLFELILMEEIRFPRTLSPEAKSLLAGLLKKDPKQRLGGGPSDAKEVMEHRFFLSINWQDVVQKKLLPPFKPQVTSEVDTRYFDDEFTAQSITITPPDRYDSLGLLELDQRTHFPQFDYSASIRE

MAPK9 (human) = MAPK9 (human) (UniProt P45984)
FGFR1 (human) = FGFR1 (human) (UniProt P11362)
SYK (human) = SYK (human) (UniProt P43405)
MAP3K1 (human) = MAP3K1 (human) (UniProt Q13233)
YES1 (human) = YES1 (human) (UniProt P07947)
[3] = biological target: STK11 CAB39 STRADA (human) (UniProt Q9Y376+Q7RTN6+Q15831)
EPHB4 (human) = EPHB4 (human) (UniProt P54760)
MARK4 (human) = MARK4 (human) (UniProt Q96L34)
Sequence of MARK4 (human) (Q96L34 whole entry, looked up): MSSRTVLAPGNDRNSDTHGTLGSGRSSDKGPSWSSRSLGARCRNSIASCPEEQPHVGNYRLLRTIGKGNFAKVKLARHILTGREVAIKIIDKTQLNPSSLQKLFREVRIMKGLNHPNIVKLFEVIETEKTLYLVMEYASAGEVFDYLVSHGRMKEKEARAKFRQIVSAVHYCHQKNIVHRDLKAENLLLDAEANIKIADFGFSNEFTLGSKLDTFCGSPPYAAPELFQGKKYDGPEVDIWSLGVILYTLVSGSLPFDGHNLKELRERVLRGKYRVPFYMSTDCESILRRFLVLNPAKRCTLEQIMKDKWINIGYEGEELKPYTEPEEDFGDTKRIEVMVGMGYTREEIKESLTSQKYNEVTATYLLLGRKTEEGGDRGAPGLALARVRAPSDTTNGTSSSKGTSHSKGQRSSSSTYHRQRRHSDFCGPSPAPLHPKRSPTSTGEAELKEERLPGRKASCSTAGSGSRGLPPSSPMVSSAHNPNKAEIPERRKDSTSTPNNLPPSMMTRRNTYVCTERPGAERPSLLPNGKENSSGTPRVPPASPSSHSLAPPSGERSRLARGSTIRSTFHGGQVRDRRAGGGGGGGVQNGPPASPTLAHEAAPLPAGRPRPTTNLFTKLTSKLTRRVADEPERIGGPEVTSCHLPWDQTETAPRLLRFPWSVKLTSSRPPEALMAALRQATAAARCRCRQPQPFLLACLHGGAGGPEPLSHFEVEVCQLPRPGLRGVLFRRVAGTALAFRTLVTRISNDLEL

Sequence of MAP2K2 (human) (P36507 whole entry, looked up): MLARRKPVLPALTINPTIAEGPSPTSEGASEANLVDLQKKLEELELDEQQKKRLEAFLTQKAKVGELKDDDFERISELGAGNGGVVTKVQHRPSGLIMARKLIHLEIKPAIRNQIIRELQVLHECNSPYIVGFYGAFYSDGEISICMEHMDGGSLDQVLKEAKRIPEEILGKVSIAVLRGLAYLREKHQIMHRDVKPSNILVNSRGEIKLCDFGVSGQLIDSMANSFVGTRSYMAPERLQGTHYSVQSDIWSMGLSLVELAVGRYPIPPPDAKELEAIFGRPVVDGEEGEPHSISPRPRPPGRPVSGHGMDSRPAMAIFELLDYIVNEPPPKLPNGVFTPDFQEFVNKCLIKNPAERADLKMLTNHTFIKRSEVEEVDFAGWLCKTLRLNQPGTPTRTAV

A residual activity (MAPK13 (human); compound 0.01 µM) of 102%, a residual activity (MAPK13 (human); compound 0.1 µM) of 90% and a residual activity (MAPK13 (human); compound 1.0 µM) of 90% were found for `O=C(Nc1nc2cc(C(F)(F)F)cc(NC3CC3)n2n1)c1cccnc1` in this work. It also gave a residual activity (CHEK1 (human); compound 0.01 µM) of 103%, a residual activity (CHEK1 (human); compound 0.1 µM) of 99% and a residual activity (CHEK1 (human); compound 1.0 µM) of 104%. The residual activity (PRKCZ (human); compound 0.01 µM) was 96%, the residual activity (PRKCZ (human); compound 1.0 µM) was 84% and the residual activity (AURKA (human); compound 0.01 µM) was 108%. It also gave a residual activity (AURKA (human); compound 0.1 µM) of 128%, a residual activity (AURKA (human); compound 1.0 µM) of 96% and a residual activity (GSK3B (human); compound 0.01 µM) of 87%. The residual activity (GSK3B (human); compound 0.1 µM) was 92%, the residual activity (GSK3B (human); compound 1.0 µM) was 79% and the residual activity (MAP2K2 (human); compound 0.01 µM) was 90%. It also gave a residual activity (MAP2K2 (human); compound 0.1 µM) of 90%, a residual activity (MAP2K2 (human); compound 1.0 µM) of 69% and a residual activity (PKN2 (human); compound 0.01 µM) of 77%. It also gave a residual activity (PKN2 (human); compound 0.1 µM) of 104%, a residual activity (PKN2 (human); compound 1.0 µM) of 75% and a residual activity (MYLK (human); compound 0.01 µM) of 96%. It also gave a residual activity (MYLK (human); compound 0.1 µM) of 93%, a residual activity (MYLK (human); compound 1.0 µM) of 106% and a residual activity (MELK (human); compound 0.01 µM) of 97%. The residual activity (MELK (human); compound 0.1 µM) was 107%, the residual activity (MELK (human); compound 1.0 µM) was 92% and the residual activity (TAOK1 (human); compound 0.01 µM) was 91%. The residual activity (TAOK1 (human); compound 0.1 µM) was 101%, the residual activity (TAOK1 (human); compound 1.0 µM) was 105% and the residual activity (MAP3K9 (human); compound 0.01 µM) was 90%. The residual activity (MAP3K9 (human); compound 0.1 µM) was 80%, the residual activity (MAP3K9 (human); compound 1.0 µM) was 75% and the residual activity (SRC (human); compound 0.01 µM) was 100%. For the same compound, the residual activity (SRC (human); compound 0.1 µM) was 107%, the residual activity (SRC (human); compound 1.0 µM) was 102% and the residual activity (EEF2K (human); compound 0.01 µM) was 99%. For the same compound, the residual activity (EEF2K (human); compound 0.1 µM) was 118%, the residual activity (EEF2K (human); compound 1.0 µM) was 84% and the residual activity (EPHB1 (human); compound 0.01 µM) was 106%. The residual activity (EPHB1 (human); compound 0.1 µM) was 120%, the residual activity (EPHB1 (human); compound 1.0 µM) was 94% and the residual activity (MAP3K5 (human); compound 0.01 µM) was 98%. For the same compound, the residual activity (MAP3K5 (human); compound 0.1 µM) was 54%, the residual activity (MAP3K5 (human); compound 1.0 µM) was 11% and the residual activity (MAPK1 (human); compound 0.01 µM) was 92%. The residual activity (MAPK1 (human); compound 0.1 µM) was 96%, the residual activity (MAPK1 (human); compound 1.0 µM) was 102% and the residual activity (AURKB (human); compound 0.01 µM) was 93%. For the same compound, the residual activity (AURKB (human); compound 0.1 µM) was 103%, the residual activity (AURKB (human); compound 1.0 µM) was 89% and the residual activity (IGF1R (human); compound 0.01 µM) was 88%. For the same compound, the residual activity (IGF1R (human); compound 0.1 µM) was 89%, the residual activity (IGF1R (human); compound 1.0 µM) was 79% and the residual activity (FLT1 (human); compound 0.01 µM) was 109%. It also gave a residual activity (FLT1 (human); compound 0.1 µM) of 88%, a residual activity (FLT1 (human); compound 1.0 µM) of 108% and a residual activity (HIPK1 (human); compound 0.01 µM) of 96%. For the same compound, the residual activity (HIPK1 (human); compound 0.1 µM) was 96%, the residual activity (HIPK1 (human); compound 1.0 µM) was 92% and the residual activity (GCK (human); compound 0.01 µM) was 112%. The residual activity (GCK (human); compound 0.1 µM) was 103%, the residual activity (GCK (human); compound 1.0 µM) was 108% and the residual activity (PAK6 (human); compound 0.01 µM) was 100%. It also gave a residual activity (PAK6 (human); compound 0.1 µM) of 88%, a residual activity (PAK6 (human); compound 1.0 µM) of 93% and a residual activity ([1]; compound 0.01 µM) of 110%. For the same compound, the residual activity ([1]; compound 0.1 µM) was 126%, the residual activity ([1]; compound 1.0 µM) was 104% and the residual activity (CSNK1D (human); compound 0.01 µM) was 92%. For the same compound, the residual activity (CSNK1D (human); compound 0.1 µM) was 93%, the residual activity (CSNK1D (human); compound 1.0 µM) was 59% and the residual activity (HIPK2 (human); compound 0.01 µM) was 100%. For the same compound, the residual activity (HIPK2 (human); compound 0.1 µM) was 116%, the residual activity (HIPK2 (human); compound 1.0 µM) was 105% and the residual activity (MAPK10 (human); compound 0.01 µM) was 85%. For the same compound, the residual activity (MAPK10 (human); compound 0.1 µM) was 88%, the residual activity (MAPK10 (human); compound 1.0 µM) was 79% and the residual activity (TTK (human); compound 0.01 µM) was 93%. For the same compound, the residual activity (TTK (human); compound 0.1 µM) was 99%, the residual activity (TTK (human); compound 1.0 µM) was 96% and the residual activity ([2]; compound 0.01 µM) was 97%. The residual activity ([2]; compound 0.1 µM) was 103%, the residual activity ([2]; compound 1.0 µM) was 94% and the residual activity (MAPK9 (human); compound 0.01 µM) was 89%. The residual activity (MAPK9 (human); compound 0.1 µM) was 84%, the residual activity (MAPK9 (human); compound 1.0 µM) was 90% and the residual activity (FGFR1 (human); compound 0.01 µM) was 111%. It also gave a residual activity (FGFR1 (human); compound 0.1 µM) of 105%, a residual activity (FGFR1 (human); compound 1.0 µM) of 101% and a residual activity (SYK (human); compound 0.01 µM) of 107%. It also gave a residual activity (SYK (human); compound 0.1 µM) of 99%, a residual activity (MAP3K1 (human); compound 0.01 µM) of 97% and a residual activity (MAP3K1 (human); compound 0.1 µM) of 108%. For the same compound, the residual activity (MAP3K1 (human); compound 1.0 µM) was 91%, the residual activity (YES1 (human); compound 0.01 µM) was 81% and the residual activity (YES1 (human); compound 0.1 µM) was 87%. It also gave a residual activity (YES1 (human); compound 1.0 µM) of 74%, a residual activity ([3]; compound 0.01 µM) of 107% and a residual activity ([3]; compound 0.1 µM) of 132%. For the same compound, the residual activity ([3]; compound 1.0 µM) was 105%, the residual activity (EPHB4 (human); compound 0.01 µM) was 106% and the residual activity (EPHB4 (human); compound 0.1 µM) was 104%. For the same compound, the residual activity (EPHB4 (human); compound 1.0 µM) was 96%, the residual activity (MARK4 (human); compound 0.01 µM) was 127% and the residual activity (MARK4 (human); compound 0.1 µM) was 111%. For the same compound, the residual activity (MARK4 (human); compound 1.0 µM) was 119%.
